{
  "source": "BindingDB's records for doi:10.1021/jm001043t",
  "about": "(Lawrence Berkeley National Laboratory, 2001)",
  "key": {"[1]": {"target": "Cyclin-dependent kinase/G2/mitotic-specific cyclin- 1 (Homo sapiens, UniProt P06493)", "sequence (P06493 whole entry)": "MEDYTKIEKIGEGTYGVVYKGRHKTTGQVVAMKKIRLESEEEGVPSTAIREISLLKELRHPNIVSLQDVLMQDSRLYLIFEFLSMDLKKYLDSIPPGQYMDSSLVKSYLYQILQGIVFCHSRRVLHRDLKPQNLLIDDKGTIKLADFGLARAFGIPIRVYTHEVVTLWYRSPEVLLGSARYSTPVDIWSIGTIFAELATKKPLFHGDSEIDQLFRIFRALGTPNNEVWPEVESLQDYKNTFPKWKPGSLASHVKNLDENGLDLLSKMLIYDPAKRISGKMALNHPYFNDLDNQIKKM", "sequence (P14635 whole entry, further chain)": "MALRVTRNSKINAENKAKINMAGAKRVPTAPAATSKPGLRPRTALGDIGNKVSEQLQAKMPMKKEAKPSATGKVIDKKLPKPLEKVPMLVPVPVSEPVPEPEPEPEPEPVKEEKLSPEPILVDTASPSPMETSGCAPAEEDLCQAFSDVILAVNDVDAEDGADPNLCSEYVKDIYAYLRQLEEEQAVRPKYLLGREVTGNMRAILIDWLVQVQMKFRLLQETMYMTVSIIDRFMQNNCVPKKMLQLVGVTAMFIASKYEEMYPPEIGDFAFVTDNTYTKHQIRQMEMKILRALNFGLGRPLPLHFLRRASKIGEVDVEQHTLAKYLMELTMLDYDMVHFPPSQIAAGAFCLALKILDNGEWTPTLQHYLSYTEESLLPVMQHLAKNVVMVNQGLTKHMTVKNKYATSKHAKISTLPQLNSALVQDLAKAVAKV", "assay": "CDK1/Cyclin B Kinase SPA Assay", "settings": "pH 8; 30 °C", "method": "The biochemical activity of compounds was determined by incubation with specific enzyme and substrate in the presence 0.5 uM ATP/ [gamma-33P] ATP. After incubation, the reaction was stopped and the phosphorylated substrate was separated from nonincorporated radioactive ATP using Streptavidin-coated SPA beads, counted using TopCount (Packard) to measure substrate-incorporated phosphate."}, "[2]": {"target": "Cyclin-dependent kinase 2/G1/S-specific cyclin-E1 (Homo sapiens, UniProt P24941)", "assay": "CDK2/Cyclin E and CDK4/Cyclin D1 Kinase Assay", "settings": "pH 7.5; 30 °C", "method": "(§1) The enzyme was assayed with substrate GST-Rb in the presence of 10 uM ATP/[gamma-33P] ATP, and capturing the 33-P labeled reaction products on GSH-Sepharose beads. […] Use of 33P-labeled ATP allows this transfer to be monitored by scintillation counting."}, "[3]": {"target": "Cyclin-dependent kinase 4/G1/S-specific cyclin-D1 (Homo sapiens, UniProt P11802)", "sequence (P11802 whole entry)": "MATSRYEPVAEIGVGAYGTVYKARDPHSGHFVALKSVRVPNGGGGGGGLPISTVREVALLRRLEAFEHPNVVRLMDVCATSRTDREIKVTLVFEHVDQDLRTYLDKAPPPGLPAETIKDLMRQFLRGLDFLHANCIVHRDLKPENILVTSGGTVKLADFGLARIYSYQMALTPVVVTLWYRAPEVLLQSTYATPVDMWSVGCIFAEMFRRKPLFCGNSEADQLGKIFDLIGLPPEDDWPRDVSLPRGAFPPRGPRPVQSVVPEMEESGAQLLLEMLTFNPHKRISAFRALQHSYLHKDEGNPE", "sequence (P24385 whole entry, further chain)": "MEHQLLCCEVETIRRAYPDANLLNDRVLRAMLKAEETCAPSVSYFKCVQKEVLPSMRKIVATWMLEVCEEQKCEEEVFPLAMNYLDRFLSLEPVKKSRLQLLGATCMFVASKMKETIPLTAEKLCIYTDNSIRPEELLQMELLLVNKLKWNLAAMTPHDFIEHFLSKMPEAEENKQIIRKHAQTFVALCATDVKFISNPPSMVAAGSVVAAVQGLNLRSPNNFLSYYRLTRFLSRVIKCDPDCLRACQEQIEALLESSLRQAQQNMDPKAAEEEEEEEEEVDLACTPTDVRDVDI", "assay": "CDK2/Cyclin E and CDK4/Cyclin D1 Kinase Assay", "settings": "pH 7.5; 30 °C", "method": "as §1"}},
  "data": [
    {"smiles": "C[C@@H](Nc1nc(N[C@H]2CC[C@H](N)CC2)nc2c1ncn2C1CCCC1)c1ccccc1", "note": "[2,6,9-trisubstituted adenine derivative]", "values": [
      {"measurement": "IC50", "setting": "[1]", "result": 2000, "unit": "nM"},
      {"measurement": "IC50", "setting": "[2]", "result": 720, "unit": "nM"},
      {"measurement": "IC50", "setting": "[3]", "result": 8.8, "unit": "µM"}
    ]}
  ]
}
